Laboratory results published in patent US20010034330A1, “Innate immunity-stimulating compositions of CpG and saponin and methods thereof” (priority 1998, published 2001).

How the values were obtained:
[1] = test system: Listeria monocytogenes strain 10403s; assay: Listeria monocytogenes challenge model (spleen colony counts); type: in vivo, Balb/c mice; details: Example 5, FIG. 5; given day 0, i.p. challenge with 10^5 colonies day 3, spleens 96 hours after challenge; versus saline, p<0.05 for the two lowest groups
Method: Balb/mice (5 per group, female, 8-10 weeks of age) were administered the following formulations on day 0: Group 1: saline, subcutaneous route. Group 2: 10 ug QS-21 and 10 ug of CpG sequence 1826, subcutaneous route. Group 3: 10 ug QS-21, subcutaneous route. Group 4: 10 ug CpG sequence 1826, subcutaneous route. Group 5: 0.5 ug recombinant murine IL-12, intraperitoneal route. A total volume of 0.2 ml was administered. On day 3, mice were challenged by the intraperitoneal route with 10^5 colonies of Listeria monocytogenes strain 10403s. Spleens were removed at 96 hours after challenge, homogenized, and then cultured in serial 10-fold dilutions overnight on agar plates. Listeria monocytogenes colonies were counted, the number of organisms per spleen determined, and then the geometric mean and standard error were determined for each group. A two-tailed, paired student's t-test of the log10 colonies/spleen was used to show statistical significance.

YAC-1 cells = assay: Natural killer cell activity: 51Cr release lysis of YAC-1 target cells by splenocytes of treated mice; type: in vivo, Balb/c mice; details: for NK cell response (lysis of YAC-1 cells): Example 1, FIG. 1, 10 ug each, subcutaneous, days 1 and 2; for NK cell response (lysis of YAC-1 cells) / NK activity, dose response: splenocytes day 3; for NK cell activity compared with QS-7 at an equivalent dose / NK activity, dose response: Example 3, FIG. 3, 3, 10, 30 ug s.c. day 1 and day 2
Method: Assessment of natural killer cell activity was carried out by an adaptation of a published method (Hashimoto et al., J. Immunol. 163: 583 (1999)). Balb/c mice (4 per group, female, 8-10 weeks of age) were administered one of five different candidate compositions at days 1 and 2. The compositions evaluated were (1) saline (negative control), (2) 10 ug QS-21, (3) 10 ug CpG (sequence 1826), (4) 0.5 ug murine IL-12 (positive control for NK cell activation), and (5) a combination of 10 ug QS-21 and 10 ug CpG in 0.2 ml saline. All test compositions were administered subcutaneously except for murine IL-12, which was administered intraperitoneally. Splenocytes were removed from the mice at day 3 for use as effector cells in the natural killer cell assay. Such cells were immediately used in a standard ^51Cr release lysis assay. YAC-1 cells (loaded with ^51Cr) were used as target cells. The lysis of this NK cell-sensitive line is indicative of NK cell activation in the splenocyte population.
The time dependence of the administration of CpG/QS-21 on natural killer cell activation was investigated. Balb/c mice (5 per group, female, 8-10 weeks of age) were administered a mixture of 10 ug QS-21 and 10 ug CpG sequence 1826 in a total volume of 0.2 ml by subcutaneous route seven days before (−7d), three days before (−3d), two days before (−2d), and one day before (−1d) assay of natural killer cell activity. Splenocytes were removed from the mice at day 0 for use as effector cells in the natural killer cell assay. YAC-1 cells (loaded with ^51Cr) were used as target cells. Natural killer cell lysis was apparent if the formulation of QS-21/CpG was administered one, two, or three days prior to the assay, but not if the formulation was administered seven days prior to the assay (FIG. 2). This confirms the transient nature of the natural killer cell activity.
Balb/c mice (5 per group, female, 8-10 weeks of age) were administered individually QS-7, QS-21, or CpG sequence 1826 at three different dose levels (3, 10, 30 ug) to determine a dose response curve for these individual compounds. The compositions evaluated were (1) saline (negative control), (2) 3 ug QS-21, (3) 10 ug QS-21, (4) 30 ug QS-21, (5) 3 ug QS-7(6) 10 ug QS-7, (7) 30 ug QS-7, (8) 3 ug sequence CpG 1826, (9) 10 ug CpG sequence 1826, and (10) 30 ug CpG sequence 1826. All test compositions were administered subcutaneously at day 1 and day 2. Splenocytes were removed from the mice at day 3 for use as effector cells in the natural killer cell assay. YAC-1 cells (loaded with ^51Cr) were used as target cells.
This experiment evaluated the natural killer cell stimulating activity induced by various formulations: (1) QS-21 (10 ug), (2) QS-7 (10 ug), (3) CpG sequence 1826 (10 ug), (4) CpG sequence 2006 (10 ug), (5) QS-21 (10 ug)+CpG sequence 1826 (10 ug), (6) QS-21 (10 ug)+CpG 2006 (10 ug), (7) QS-7 (10 ug)+CpG sequence 1826 ( […]), (8) QS-7 (10 ug) +CpG sequence 2006 (10 ug), (9) QS-7 (10 ug) and QS-21 (10 ug) and (10) saline. Balb/c mice (5 per group, female, 8-10 weeks of age) were administered the above formulations by subcutaneous route on day 1 and day 2. Splenocytes were removed from the mice at day 3 for use as effector cells in the natural killer cell assay. YAC-1 cells (loaded with ^51Cr) were used as target cells.

For QS-21, the “Listeria monocytogenes colony count in spleen” value [1] was “lowest colony counts”, the “NK cell response (lysis of YAC-1 cells)” value (YAC-1 cells) was “higher than CpG and that was nearly equivalent to the positive control, murine IL-12” and the “NK cell activity compared with QS-7 at an equivalent dose” value (YAC-1 cells) was “higher than that induced by QS-7”. The “NK activity, dose response” value (YAC-1 cells) was “enhance NK activity in a dose dependent fashion”.
“TCCATGACGTTCCTGACGTT [CpG sequence 1826]” was tested, and the “NK cell response (lysis of YAC-1 cells)” value (YAC-1 cells) was “slightly enhanced the NK cell activity”, the “NK cell activity compared with QS-7 at an equivalent dose” value (YAC-1 cells) was “higher than that induced by QS-7” and the “NK activity, dose response” value (YAC-1 cells) was “enhance NK activity in a dose dependent fashion”.
